Data: US11684617B2, “Methods of diagnosing and treating ADHD in biomarker positive subjects” (The Children's Hospital of Philadelphia, priority 2017, dated 2023)
Values joined by “and” are separate entries in the source; they are usually repeats but may differ in a detail not shown here. Equal values may be shown once.

What was measured:
pediatric ADHD subjects = pediatric ADHD subjects (Akhundian 2001); cited from earlier work
animal models = conditions: cited from earlier work
[1] = tested on: dementia-related cognitive impairment; conditions: cited from earlier work
[2] = tested on: CNV-positive adolescents with moderately severe ADHD; test: SAGA Phase 2 study: remission (ADHD-RS-5 <=18, CGI-I 1, composite); type: in vivo, human; conditions: endpoint; data not shown
Protocol: (§1) The maximum dose was 400 mg BID or placebo.
The definition of a “remission” in this study was a response at endpoint of:
A) ADHD-RS-5 Total score ≤18; • B) CGI-I score of 1. OR • C) Composite (both A and B)

[3] = tested on: CNV-positive adolescents with moderately severe ADHD; test: SAGA Phase 2 study: tolerability/safety, treatment-emergent adverse events (safety population); conditions: safety population; NFC-1 n = 47
[4] = tested on: CNV-positive adolescents with moderately severe ADHD; test: SAGA Phase 2 study: ADHD-RS-5 total score change from baseline (LOCF); type: in vivo, human; parameters: Response (% reduction in ADHD-RS score at endpoint from baseline): concentration or dose not given beside the values; conditions: for Response (change from baseline in ADHD RS-5 total score): Table 19
Source text: Subjects received randomized treatment with either NFC-1 or placebo. Subjects had ADHD as defined by the Diagnostic and Statistical Manual of Mental Disorders, 5th edition (DSM-5) and Version 5 of the Attention Deficit Hyperactivity Disorder Rating Scale (ADHD RS-5) >28 at Baseline with or without conventional ADHD therapy.
The study was a multicenter, Phase 2, double-blind, randomized, placebo-controlled, parallel-group, dose-optimization study. The study enrolled adolescents 12-17 yrs (inclusive) with ADHD defined by DSM-5 criteria.
Subjects were CNV positive for a CNVs in at least one of the 273 Tier 1 or Tier 2 glutamatergic network genes of interest as listed in Table 1 or 2. These subjects positive for a CNV may also be termed “biomarker positive.”
as §1
Efficacy was assessed by the ADHD RS-5, CGI-I, CGI-S, the Adolescent Sleep Hygiene Scale (ASHS), and the Screen for Childhood Anxiety-related Emotional Disorders (SCARED).
The primary efficacy endpoint was the change from baseline in ADHD-RS-5 total score to end of study (last observation carried forward, LOCF) in Intent-to-Treat (ITT) population. The ITT population consisted of 101 patients randomized to NFC-1 or placebo.

[5] = tested on: CNV-positive adolescents with moderately severe ADHD; conditions: in vivo
[6] = tested on: CNV-positive adolescents with moderately severe ADHD; test: SAGA Phase 2 study: treatment response (responder: >=30% ADHD-RS-5 reduction, CGI-I 1 or 2, composite); type: in vivo, human; conditions: for Responder? (Y/N): Table 19
Protocol: as §1
Treatment response was evaluated by measurement of responders and remission. The definition of a “responder” in this study was a response at endpoint of:
A) ≥30% reduction from Baseline in ADHD-RS-5 Total score; • B) CGI-I score of 1 (very much improved) or 2 (much improved); OR • C) Composite (both A and B)
Throughout, the “Response” columns represent the % reduction in ADHD-RS score at endpoint from baseline. […]

[7] = tested on: group I and group II/III mGluRs; conditions: in vitro studies (Hirouchi 2000); cited from earlier work
[8] = prior human studies; cited from earlier work
[9] = NFC-1-treated patient with CNV in ADRA2A
[10] = NFC-1-treated patient with CNV in CA8
[11] = NFC-1-treated patient with CNV in GRM5
[12] = NFC-1-treated patient with CNV in SNCA
[13] = study end (LOCF), 8-Gene Subset including CNTN4, NFC-1 BID n = 17, p <0.0001 vs placebo
[14] = study end (LOCF), CNTN4 Subset, NFC-1 BID n = 6, p <0.01 vs placebo
[15] = treatment response at endpoint (ITT, LOCF), NFC-1 BID n = 46, p <0.05 vs placebo

In the case of `NC(=O)CN1CCCC1=O` [piracetam], the “effect on ADHD symptoms compared to placebo control” value (pediatric ADHD subjects) is given as “increase ADHD symptoms”.
In the case of `O=C1CC[C@H](C(=O)N2CCCCC2)N1` [NFC-1, fasoracetam monohydrate], the “effects on learning and memory” value (animal models) is listed as “Positive effects”, the safety and tolerability ([1]; Phase I-III trials, dementia indications) is listed as “generally safe and well tolerated” and the “effects on psychiatric symptoms” value ([1]; Phase III data, cerebral infarct patients and adult dementia patients with cerebrovascular diseases) is listed as “beneficial effects”. The efficacy in dementia ([1]; Phase III trials) was “did not show sufficient efficacy”, the “difference between treatment groups in remission” value [2] was “no significant difference” and the “TEAE: Upper respiratory tract infection, % of subjects” value [3] was 4%. The “difference between placebo and NFC-1 in ADHD-RS-5 total score change from Baseline to LOCF endpoint (primary endpoint)” value ([4]; ITT, overall population, optimized dose 100, 200 or 400 mg BID) was “not significant”, the “Response (% reduction in ADHD-RS score at endpoint from baseline)” value ([4]; Table 16, individual subjects with CNV in CNTN4 in the NFC-1-treated group, monohydrate) was −41.46% and −35.9% and −77.42% and −70% and −62.5% and −48.65% and the “Response (change from baseline in ADHD RS-5 total score)” value [4, 9] was −65%. The “Response (change from baseline in ADHD RS-5 total score)” value [4, 10] was −33.3333%, the “Response (change from baseline in ADHD RS-5 total score)” value [4, 11] was −37.5% and the “Response (change from baseline in ADHD RS-5 total score)” value [4, 12] was −76.9231%. For the same molecule, the “Response (change from baseline in ADHD RS-5 total score)” value ([4]; NFC-1-treated patients with CNV in GRM8, monohydrate) was −48.2759% and −39.0244%, the “subjects in whom dosing with the highest dose (400 mg BID) was achieved” value ([5]; human, 4 weeks) was 91% and the “Any TEAE, % of subjects” value ([5]; human, 6 weeks) was 70%. The “Discontinuations due to TEAEs, % of subjects” value ([5]; human, 6 weeks) was 6%, the “TEAE: Accidental overdose, % of subjects” value ([5]; human, 6 weeks) was 11% and the “TEAE: Appetite increased, % of subjects” value ([5]; human, 6 weeks) was 6%. The “TEAE: Fatigue, % of subjects” value ([5]; human, 6 weeks) was 15%, the “TEAE: Headache, % of subjects” value ([5]; human, 6 weeks) was 9% and the “TEAE: Irritability, % of subjects” value ([5]; human, 6 weeks) was 2%. The “TEAE: Nasopharyngitis, % of subjects” value ([5]; human, 6 weeks) was 2%, the “TEAE: Nausea, % of subjects” value ([5]; human, 6 weeks) was 6% and the “TEAE: Weight increased, % of subjects” value ([5]; human, 6 weeks) was 15%. For the same molecule, the overall tolerability [5] was “generally well-tolerated”, the “serious TEAEs” value [5] was “No serious TEAEs were reported” and the “severity of TEAEs” value [5] was “majority of TEAEs were mild-to-moderate”. The “Responder? (Y/N)” value [6, 9] was “Y (“Responder” indicates a 30% or greater reduction from baseline in ADHD RS-5 total score)”, the “Responder? (Y/N)” value [6, 10] was “Y (“Responder” indicates a 30% or greater reduction from baseline in ADHD RS-5 total score)” and the “Responder? (Y/N)” value [6, 11] was “Y (“Responder” indicates a 30% or greater reduction from baseline in ADHD RS-5 total score)”. For the same molecule, the “Responder? (Y/N)” value [6, 12] was “Y (“Responder” indicates a 30% or greater reduction from baseline in ADHD RS-5 total score)”, the “Responder? (Y/N)” value ([6]; NFC-1-treated patients with CNV in CNTN4) was “Y (“Responder” indicates a 30% or greater reduction from baseline in ADHD RS-5 total score)” and the “Responder? (Y/N)” value ([6]; NFC-1-treated patients with CNV in GRM8) was “Y (“Responder” indicates a 30% or greater reduction from baseline in ADHD RS-5 total score)”. The “ADHD-RS-5 Total Score: ≥30% Reduction from Baseline, % of subjects” value [6, 13] was 88% (15), the “CGI-I Score 1 or 2, % of subjects” value [6, 13] was 76% (13) and the “Composite response, % of subjects” value [6, 13] was 76% (13). For the same molecule, the “ADHD-RS-5 Total Score: ≥30% Reduction from Baseline, % of subjects” value ([6]; study end (LOCF), CNTN4 Subset, NFC-1 BID n = 6, p <0.005 vs placebo) was 100% (6), the “CGI-I Score 1 or 2, % of subjects” value [6, 14] was 83% (5) and the “Composite response, % of subjects” value [6, 14] was 83% (5). For the same molecule, the “patients with 30% or greater reduction from baseline in ADHD RS-5 total score” value ([6]; subjects with a CNV in CNTN4 assigned to NFC-1) was 6/6, the “ADHD RS-5 Total Score: ≥30% Reduction from Baseline, % of subjects” value ([6]; treatment response at endpoint (ITT, LOCF), NFC-1 BID n = 46, p <0.01 vs placebo) was 70% (32) and the “CGI-I Score 1 or 2, % of subjects” value [6, 15] was 57% (26). For the same molecule, the “Composite response, % of subjects” value [6, 15] was 57% (26).
In the case of `O=C1CC[C@H](C(=O)N2CCCCC2)N1` [Fasoracetam, (+)-5-oxo-D-prolinepiperidinamide], the “stimulation of mGluRs” value [7] is listed as “can stimulate both group I and group II/III mGluRs”, the bioavailable [8] is listed as 79%-97% and the half-life [8] is listed as 5 to 6.5 h.
